{Fluorescein} = fluorescein label (binding site for anti-fluorescein Fab-HRP); {Biotin} = biotin (capture probe anchor)
System: bacterial 16S rRNA
Assay: Amperometric detection of bacterial 16S rRNA, statements over several targets (Examples 2, 3)
Type: binding
Conditions: previous studies; no gap between hybridization sites
Method: Sensor characterization and surface functional layer preparation. Microfabricated electrochemical sensor arrays with an alkanethiolate self-assembled monolayer (SAM) were obtained from GeneFluidics (Monterey Park, Calif.). SAM integrity was confirmed by cyclic voltammetry (CV) (1) using a 16-channel potentiostat (GeneFluidics). After CV characterization, sensor arrays were washed and dried. Washing steps were carried out by applying a stream of deionized H2O to the sensor surface for approximately 2-3 sec followed by 5 sec of drying under a stream of nitrogen. To functionalize the sensor surface, 2.5 μl of 0.5 U/ml streptavidin (Calbiochem, San Diego, Calif.) in 100 mM phosphate buffered saline, pH 7.4 was added to the alkanethiol activated sensors, incubated for 10 min at room temperature and washed off. Biotinylated capture probes (2.5 μl, 1 μM in GeneFluidics' Probe Diluent) were added to the streptavidin-coated sensors. […]
Amperometric Detection of bacterial 16S rRNA. […] Amperometric current vs. time was measured using a multichannel potentiostat (GeneFluidics). The voltage was fixed at −200 mV (vs. reference), and the electroreduction current was measured at 60 sec after the HRP redox reaction reached steady state. All samples were analyzed in duplicate. […] Positive signals are determined by comparing the signals with the background using paired T test. […]

Q: With “UNI: Universal Bacterial probe pair: capture 797 (27 mer) SEQ ID NO: 13, detector 766 (31 mer) SEQ ID NO: 14 (DNA 1 CATCGTTTACGGCGTGGACTACCAGGG; DNA 2 TATCTAATCCTGTTTGCTCCCCACGCTTTCG; DNA 1: DNA, 5' {Biotin}, backbone and methylation of C not given here; DNA 2: DNA, 5' {Fluorescein}, backbone and methylation of C not given here)” as the substance, how does the “higher signals than the species-specific probes with 6 bp gap” value read?
A: 1.5-4 fold

From patent US7763426B2, “Probes and methods for detection of Escheridia coli and antibiotic resistance” (priority 2004, dated 2010)
